According to paper PMC6014988, “Precision therapeutic targeting of human cancer cell motility” (Nature Communications, 2018):
“Also recorded” adds a separate entry of the source. Where two headings read alike, the source gives them in different places.

Tests used:
[1] = test system: estrogen receptor (ER); experiment: Induction of estrogen-responsive genes in MCF-7 cells; assay type: cell-based, human
Protocol: RNA was isolated and qRT-PCR was performed as described by us[43], analyzed by the 2^−ΔΔCt method, using primer/probes sets (ABI), HSP90α (Hs00743767_sH), HSP90β (Hs00427665_g1), trefoil factor 1 (TFF1; Hs00907239_m1), cathepsin D (CTSD; Hs00157205_m1), progesterone receptor (PGR; Hs01556702_m1), and GAPDH (Hs99999905_m1). Assays were repeated, each in replicates of N = 2. […]
panel. KBU2046 was submitted to the Developmental Therapeutics Program (DTP) of the US National Cancer Institute (NCI), underwent initial screening across the NCI 60 cell line panel per DTP protocol 1, and the resultant COMPARE diagram is depicted above. Based upon its lack of […]
Supplementary Figure 3. […] Estrogen […]
receptor positive MCF-7 cells were cultured under hormone free conditions transfected pERE-Luc or empty control vector, along with constitutive active β-gal, grown under estrogen-free conditions, and pre-treated for 24 hours with nanomolar concentrations of estradiol, or with micromolar concentrations of genistein or KBU2046, as indicated. Luciferase activity was measured, normalized to that of β-gal, and values expressed as the percent of untreated vector control cells. Values are the mean±SD of a single experiment, with similar results seen in a separate repeat experiment, both in replicates of N=2.
(also on this page, place not known: luciferase/B-gal activity, % untreated vector control) […]

[2] = Pharmacokinetics in CD1 mice, oral gavage and iv; assay type: in vivo, mouse
Protocol: (§1) For determination of pharmacokinetic (PK) parameters, KBU2046 was administered by either intravenous injection or oral gavage to groups of N = 3 CD1(ICR) mice at 0 (i.e., vehicle only), 25, or 100 mg/kg. Blood was collected into EDTA by terminal cardiac puncture before drug administration (i.e., baseline) and at 5, 10, 15, 30, 45, 60, 90, 120, 180, 240, 360, 480, 960, 1440 min after administration. In separate experiments, as described above, Balb/c athymic mice were dosed with KBU2046 incorporated into chow for 35 days, after which blood was collected by terminal cardiac puncture. Resultant plasma (~250 μl/mouse) was stored at −80 °C.
Plasma KBU2046 concentrations were measured in duplicate by liquid chromatography-tandem mass spectrometry after sample preparation by solid-phase extraction. Specifically, 0.1 mL of a sample, 10 μL of 0.1 μg/mL internal standard solution (3-(2-chlorophenyl)-(4H-1-benzopyran-4-one, a chloride analog of KBU2046), 3800 μL of water, and 10 μl of 85% phosphoric acid were added, vortexed, and stored at 4 °C for 2 h. After washing a 96-well Strata-X 33 µm polymeric reversed phase 30 mg/well solid-phase extraction plate (Phenomenex) with methanol and water, sample was applied, washed with 20% methanol in water, eluted with 70% acetonitrile/30% methanol, dried at 50 °C under N2, reconstituted with 100 μL of mobile phase, and 20 µL was analyzed on an API 3000 liquid chromatography-tandem mass spectrometry system (Applied Biosystems) with an Agilent 1100 series HPLC system (Agilent Technologies). Samples were eluted isocratically from a Synergi 4-μm MAX-RP 100 Å column (2.0 × 50 mm; Phenomenex) by a mobile phase consisting of 10 mM ammonium formate in water and methanol (30:70 [vol/vol]) at a flow rate of 0.20 mL/min. The tandem mass spectrometer was operated with its electrospray source in the positive ionization mode. The mass-to-charge ratios of the precursor-to-product ion reactions monitored were 243.5 → 125.1 for KBU2046 and 257.0 → 165.0 for the internal standard. The retention time of KBU2046 was ~2.7 min while that of the internal standard was ~2.3 min. The linear range for plasma KBU2046 standard curves was 0.1–25.0 ng/mL, with coefficients of variation of 10% or less throughout the entire concentration range. Fresh plasma standard curves were prepared in blank plasma and run on the day of analysis of plasma samples.
Plasma KBU2046 concentration vs. time relationships after both intravenous and oral drug administration were modeled simultaneously using the SAAM II software system (SAAM Institute), implemented on a WindowsTM-based PC (see PK modeling schema). Plasma concentrations were modeled with a three-compartment PK model using a naive pooled data approach. Oral drug absorption was characterized by a tanks-in-series delay element, to account for the non-instantaneous appearance of drug in the body. Simultaneous estimation of PK model parameters for both routes of administration permitted estimation of the bioavailability of the orally administered drug (F)[41]. The SAAM II objective function used was the extended least-squares maximum likelihood function using data weighted with the inverse of the model-based variance of the data at the observation times. Model misspecification was sought by visual inspection of the measured and predicted marker concentrations vs. time relationships (Fig. 7)[42].

[3] = Plasma KBU2046 concentration after dosing in chow; assay type: in vivo; settings: Balb/c athymic, mouse, oral
Protocol: as §1
Plasma KBU2046 concentrations were measured in duplicate by liquid chromatography-tandem mass spectrometry after sample preparation by solid-phase extraction. […] The mass-to-charge ratios of the precursor-to-product ion reactions monitored were 243.5 → 125.1 for KBU2046 and 257.0 → 165.0 for the internal standard. […]

[4] = test system: RAF1; experiment: RAF1 protein expression, western blot; assay type: cell-based, human; settings: in cells
Protocol: Fig. 6 KBU2046-mediated changes in the signature of client proteins bound to the HSP90β/CDC37 heterocomplex mediate effects upon cell motility. a LUMIER assay. HEK293T cells were transfected with 1 of 420 different protein kinases, treated with 10 µM KBU2046 (N = 5 replicates) or vehicle control (N = 5) for 3 days, and LUMIER assays performed. The N = 17 kinases that gave significant findings (Student’s t-test <0.05) in the same direction in each of two separate experiments are depicted. […] All experiments were repeated at separate times at least once, with similar results
Western blots were performed as described by us[32]. All western blots were repeated at least once. Uncropped scans of the most important blots are depicted in Supplementary Fig. 19.

[5] = combined fit of both doses by both routes

With `O=C1c2ccccc2OCC1c1ccc(F)cc1` (racemic) [KBU2046, (±)-3(4-fluorophenyl)chroman-4-one] the “activation of estrogen-responsive genes” value [1] was “did not activate estrogen-responsive genes; also recorded: does not activate the estrogen receptor”, the clearance ([2]; CD1(ICR), mouse, plasma, combined fit of both doses by both routes, read-out: Clearance, Elimination CLE) was 1.53 mL/min and the clearance ([2]; CD1(ICR), mouse, plasma, combined fit of both doses by both routes, read-out: Clearance, Fast CLF) was 0.61 mL/min. The clearance ([2]; CD1(ICR), mouse, plasma, combined fit of both doses by both routes, read-out: Clearance, Slow CLS) was 0.11 mL/min, the Vd ([2]; CD1(ICR), mouse, plasma, combined fit of both doses by both routes, read-out: Distribution volume, Total VSS) was 0.0636 L and the half-life ([2]; CD1(ICR), mouse, plasma, combined fit of both doses by both routes, read-out: Elim Half-life (converted)) was 2.27 h. It also gave a bioavailability ([2]; CD1(ICR), mouse, plasma, 25 mg/kg by oral gavage) of 4.6%, a bioavailability ([2]; CD1(ICR), mouse, plasma, 100 mg/kg by oral gavage) of 10.1% and an Absorption delay [2, 5] of 32.3 min. For the same compound, the “Distribution volume, Central VC” value [2, 5] was 19.3 mL, the “Distribution volume, Fast VF” value [2, 5] was 20.4 mL and the “Distribution volume, Slow VS” value [2, 5] was 23.9 mL. The “time plasma concentrations maintained >24 nM” value ([2]; single oral dose) was 9.3 h, the concentration at 35 days ([3]; 150 mg/kg, mice whose metastasis were suppressed by 92%, read-out: plasma concentration) was 24 nM and the concentration at 35 days ([3]; athymic mice, KBU2046 in chow, doses that decreased metastasis, read-out: plasma concentrations) was 1.1 to 24 nM. For the same compound, the “RAF1 protein expression levels” value [4] was “did not alter RAF1 protein expression levels”.
